System: primary-culture hepatocytes
Assay: Leakage of GOT from primary-culture hepatocytes exposed to liver poison (Test Examples 1-4)
Type: cell-based, rat
Conditions: Liver poison alone, no addition of HGF (Carbon tetrachloride 5 mM; Mitomycin C 8 µM); culture for 24 hours; control 6.0 ± 0.4
Description: The primary culture was carried out as follows: Isolated hepatocytes were dispersed in William's medium (5% bovine serum, 10^-9 M insulin and 10^-9 M dexamethasone) and the cells were seeded in a 12-well plastic dish (Corning Co.) having the bottom coated with Type-I collagen. The culture medium was exchanged with the medium containing aprotinin at 0.5 µg/ml and without serum and hormones 2 hours later.
The protective effect of HGF on the hepatocytes was tested by the effect on the leakage to enzymes from the cytoplasm of the hepatocytes in the primary culture.
In order to mimick this phenomenon, hepatocyte primary-culture added with the liver poison was used. Thus the leakage of cytoplasmic enzymes such as GOT was measured in this culture system, and the protective activity on the hepatocytes by HGF was estimated along with measurement of the degree of inhibition of leakage of GOT or others. […]
The primary-culture hepatocytes described in Reference Example 3 were seeded at the surface density of 1.2 x 10^5 cells/cm^2 and on the next day, the medium was changed to one without serum, followed by the addition of HGF at 10 ng/ml and/or carbon tetrachloride at 5 mM. […] The GOT activity in the supernatant was measured by the conventional method. […]

`ClC(Cl)(Cl)Cl` [Carbon tetrachloride] showed a GOT activity of 12.7 ± 1.2 mU/ml.
